Consider 9 molecules from paper PMC10252016, “Mutation in the Common Docking Domain Affects MAP Kinase ERK2 Catalysis and Stability” (Cancers, 2023).

The target of assay [1] is T1, D321A (Homo sapiens, UniProt P28482, D321A).
T1 construct: gene MAPK1; recombinant ERK2 D321A
As to the kind of experiment: biochemical. Set-up: Differential scanning fluorimetry, SYPRO Orange, 2 uM ERK2, melting temperature shift with 12 uM inhibitor. Particulars: for ΔTm at 12 µM: read-out: ΔTm D321A.
Procedure: (§1) After 10 min at room temperature, the increase in the fluorescence signal upon the temperature-dependent unfolding of ERK2 proteins was measured with an Mx3005p real-time PCR machine (Stratagene, San Diego, CA, USA).

Assay [2] deals with T2, D321N (Homo sapiens, UniProt P28482, D321N).
T2 construct: gene MAPK1; recombinant ERK2 D321N
As to the kind of experiment: biochemical. Also noted: Differential scanning fluorimetry, SYPRO Orange, 2 uM ERK2, melting temperature shift with 12 uM inhibitor. Particulars: for ΔTm at 12 µM: read-out: ΔTm D321N.
Procedure: as §1

Assay [3] has as its target T3, D321V (Homo sapiens, UniProt P28482, D321V).
T3 construct: gene MAPK1; recombinant ERK2 D321V
The experiment in a line: biochemical. Also noted: Differential scanning fluorimetry, SYPRO Orange, 2 uM ERK2, melting temperature shift with 12 uM inhibitor. Particulars: for ΔTm at 12 µM: read-out: ΔTm D321V.
Procedure: (§2) After 10 min at room temperature, the increase in the fluorescence signal upon the temperature-dependent unfolding of ERK2 proteins was measured with an Mx3005p real-time PCR machine (Stratagene, San Diego, CA, USA). The ∆Tm shifts were calculated, as described, in [36].

Assay [4] addresses T4, extracellular-signal-regulated kinase 2 (ERK2) E322K (Homo sapiens, UniProt P28482, E322K).
T4 construct: gene MAPK1; recombinant ERK2 E322K
The experiment in a line: biochemical. Also noted: Differential scanning fluorimetry, SYPRO Orange, 2 uM ERK2, melting temperature shift with 12 uM inhibitor. Particulars: for ΔTm at 12 µM: read-out: ΔTm E322K.
Procedure: as §2

The target in assay [5] is T5, extracellular-signal-regulated kinase 2 (ERK2) (Homo sapiens, UniProt P28482).
T5 construct: gene MAPK1; recombinant ERK2 wild-type
The experiment in a line: biochemical. Set-up: Differential scanning fluorimetry, SYPRO Orange, 2 uM ERK2, melting temperature shift with 12 uM inhibitor. Particulars: for ΔTm at 12 µM: read-out: ΔTm WT.
Procedure: as §1

For assay [6], the target named is T6, D321E (Homo sapiens, UniProt P28482, D321E).
T6 construct: gene MAPK1; recombinant ERK2 D321E
As to the kind of experiment: biochemical. Particulars: for ΔTm at 12 µM: read-out: ΔTm D321E. Set-up: Differential scanning fluorimetry, SYPRO Orange, 2 uM ERK2, melting temperature shift with 12 uM inhibitor.
Procedure: as §1

Assay [7] has as its target T7, D321G (Homo sapiens, UniProt P28482, D321G).
T7 construct: gene MAPK1; recombinant ERK2 D321G
As to the kind of experiment: biochemical. Also noted: Differential scanning fluorimetry, SYPRO Orange, 2 uM ERK2, melting temperature shift with 12 uM inhibitor. Particulars: for ΔTm at 12 µM: read-out: ΔTm D321G.
Procedure: as §1

In assay [8] the target is T8, non-phosphorylated ERK2 wild-type (extracellular-signal-regulated kinase 2) (human, UniProt P28482 1-360).
T8 construct: ERK2 (MAPK1), human, wild-type; Expressed from pNIC28-Bsa4; also called NP-ERK2 wild-type; NP-ERK2; source: E. coli Rosetta with phosphatase, purified (Ni-NTA, TEV cleavage, second Ni-NTA); not shown: His6, N-terminal, cleaved
As to the kind of experiment: ITC; Affinity ITC (TA-Instruments), reversed mode: ERK2 protein (90-145 µM) in the cell, peptide (500 µM) in the syringe; 30 °C; 20 mM Hepes pH 7.5, 0.15 M NaCl, 0.5 mM TCEP; single binding site model. Particulars: both partners purified. For orientation: Isothermal titration calorimetry measures the heat released or taken up as one component is titrated into another.

For assay [9], the target named is T9, phosphorylated ERK2 wild-type (human, UniProt P28482 1-360, phosphorylated at Thr185 and Tyr187).
T9 construct: ERK2 (MAPK1), human, wild-type, phosphorylated on T185 and Y187 by co-expressed active MEK1; also called P-ERK2 wild-type; P-ERK2; not shown: His6, N-terminal, cleaved
Described as above. Particulars: both partners purified.

For orientation: ΔTm means the shift of the melting midpoint relative to a reference. As a reminder, the Kd is the free concentration of one partner at which half of the binding sites on the other are occupied at equilibrium, for simple one-to-one binding.

Turning to `COC[C@H]1Cn2cc(-c3nc(Nc4ccnn4C)ncc3C)nc2C(=O)N1Cc1ccc(F)c(F)c1` [AZD0364], the thermal shift (ΔTm) at 12 µM in assay [1] turned out to be 13.3 °C; in assay [2], 14.5 °C; in assay [3], 13 °C; in [4], 10.2 °C; in [5] it was 12.8 °C; in assay [6] it was 13.7 °C. In assay [7], the shift in melting temperature (ΔTm) at 12 µM came out at 13.9 °C.
As to `Nc1[nH]nc2nnc(-c3c(-c4ccccc4)nn4ccccc34)cc12` [FR 180204], the ΔTm at 12 µM was 3.2 °C in assay [1]; 5.4 °C in assay [2]; 5 °C in [3]; -1.3 °C in assay [4]; 2.8 °C in assay [5]; 3.7 °C in assay [6]. The shift in melting temperature (ΔTm) at 12 µM in [7] was found to be 4.6 °C.
For `Cn1nccc1Nc1nccc(-c2ccn([C@H](CO)c3ccc(Cl)c(F)c3)c(=O)c2)n1` [GDC-0994], the “ΔTm D321A” value in assay [1] (12 µM, binder) amounted to 10.70 °C. The “ΔTm D321N” value in assay [2] (12 µM, binder) amounted to 12.20 °C. Also, in assay [3] (12 µM, binder), the “ΔTm D321V” value came to 10.30 °C. Moreover, the “ΔTm E322K” value in [4] (12 µM, binder) amounted to 6.80 °C. In addition, in assay [5] (12 µM, binder), the “ΔTm WT” value amounted to 10.30 °C. Moreover, the “ΔTm D321E” value in assay [6] (12 µM, binder) is 11.20 °C. The “ΔTm D321G” value in assay [7] (12 µM, binder) turned out to be 11.80 °C.
For `O=C1Nc2cc3[nH]nc(-c4ccncc4)c3cc2CN1Cc1ccccc1` [KO-947], the ΔTm at 12 µM in assay [1] amounted to 12.3 °C; in [2], 13.6 °C; in [3], 11.8 °C; in [4], 9.2 °C; in assay [5] it was 11.8 °C; in assay [6] it was 12.8 °C. In assay [7], the shift in melting temperature (ΔTm) at 12 µM stood at 13.1 °C.
Consider `Cn1nccc1Nc1nccc(-c2cc3c(s2)C(C)(C)N(CCN2CCOCC2)C3=O)n1` [LY3214996], for which the shift in melting temperature (ΔTm) at 12 µM was 9.8 °C in assay [1]; 11.2 °C in [2]; 10 °C in assay [3]; 6.6 °C in assay [4]; 9.4 °C in assay [5]; 10.3 °C in assay [6]. For the same molecule, in [7], the thermal shift (ΔTm) at 12 µM was found to be 10.8 °C.
Turning to `O=C(Nc1ccc2[nH]nc(-c3ccncc3)c2c1)[C@@H]1CCN(CC(=O)N2CCN(c3ccc(-c4ncccn4)cc3)CC2)C1` [SCH772984], the ΔTm at 12 µM in [1] was determined as 11 °C; in assay [2], 12.7 °C; in assay [3], 11.6 °C; in assay [4], 8.7 °C; in [5], 11.6 °C; in assay [6] it was 11.7 °C. Besides, in assay [7], the ΔTm at 12 µM turned out to be 12.2 °C.
Consider `CC(C)Nc1cc(-c2c[nH]c(C(=O)N[C@H](CO)c3cccc(Cl)c3)c2)c(Cl)cn1` [Ulixertinib], for which the thermal shift (ΔTm) at 12 µM in assay [1] was 8.3 °C; in assay [2], 9.5 °C; in assay [3], 8.3 °C; in [4] it was 4.6 °C; in assay [5], 7.9 °C; in assay [6], 8.8 °C. In addition, in assay [7], the thermal shift (ΔTm) at 12 µM amounted to 9.1 °C.

B1: pepMEK2, docking peptide derived from the upstream activating kinase MEK2 (peptide)
peptide: MLARRKPVLPALTINP
notes: docking peptide from MEK2 (MAP2K2), N-terminal stretch; Solubilised in 5% DMSO and diluted in buffer; source: synthetic peptide, bought: GenScript
Molecule B1 registered a Kd in assay [8] of 23.7 µM.

B2: Kinase Interaction Motif (KIM) peptide of DUSP6 (peptide)
peptide: GIMLRRLQKGNLPVRAL
notes: Solubilised in 5% DMSO and diluted in buffer; also called KIM of DUSP6; KIM peptide DUSP6; source: synthetic peptide, bought: GenScript
B2 gave an equilibrium dissociation constant (Kd) in assay [9] of 14.4 µM.
